Source: publication PMC4239642, “trans-Acting Arginine Residues in the AAA+ Chaperone ClpB Allosterically Regulate the Activity through Inter- and Intradomain Communication” (The Journal of Biological Chemistry, 2014)
Read-outs that look alike come from different tables or passages of the source.

Tests used:
[1] = target: T1, ClpB NBD1-M dimer with P221C/M394C disulfide crosslink (Thermus thermophilus, UniProt Q9RA63, P221C/M394C); assay: coupled colorimetric ATPase assay, Hill equation fit; assay type: biochemical; settings: 5 µM protein (monomer units); 50 mM Tris/HCl pH 7.5, 100 mM KCl, 10 mM MgCl2, 2 mM EDTA, 25 °C; kcat per monomer
T1 construct: NBD1-M (residues 141-534) covalent dimer linked by intermolecular disulfide between P221C of one subunit and M394C of the other; expressed in E. coli BL21 (DE3) RIL; one cross-linked and one free site; associates to tetramers with ATP
Excerpt: coupled colorimetric ATPase assay, Hill equation fit on ClpB NBD1-M dimer with P221C/M394C disulfide crosslink

ClpB NBD1-M [2] = target: T2, ClpB NBD1-M (Thermus thermophilus, UniProt Q9RA63, R322A); assay: fluorescence displacement titration against MANT-dADP; assay type: binding; settings: 2 µM protein, 50 mM Tris/HCl pH 7.5, 50 mM KCl, 5 mM MgCl2, 2 mM EDTA, 25 °C
T2 construct: expressed in E. coli BL21 (DE3) RIL; monomer/dimer equilibrium for the arginine mutants
Excerpt: (§1) fluorescence displacement titration against MANT-dADP on ClpB NBD1-M

ClpB NBD1-M [3] = target: T3, ClpB NBD1-M (Thermus thermophilus, UniProt Q9RA63, R323A); assay: as above; assay type: binding; settings: 2 µM protein, 50 mM Tris/HCl pH 7.5, 50 mM KCl, 5 mM MgCl2, 2 mM EDTA, 25 °C
T3 construct: expressed in E. coli BL21 (DE3) RIL; monomer/dimer equilibrium for the arginine mutants
Excerpt: as §1

ClpB NBD1-M [4] = target: T4, ClpB NBD1-M (Thermus thermophilus, UniProt Q9RA63, R322A/R323A); assay: as above; assay type: binding; settings: 2 µM protein, 50 mM Tris/HCl pH 7.5, 50 mM KCl, 5 mM MgCl2, 2 mM EDTA, 25 °C
T4 construct: expressed in E. coli BL21 (DE3) RIL; monomer/dimer equilibrium for the arginine mutants
Excerpt: as §1

[5] = target: T5, ClpB NBD1-M dimer with P221C/M394C disulfide crosslink (Thermus thermophilus, UniProt Q9RA63, P221C/M394C, form not given); assay: as above; assay type: binding; settings: read-out: KD(ATP); 2 µM protein; 50 mM Tris/HCl pH 7.5, 50 mM KCl, 5 mM MgCl2, 2 mM EDTA, 25 °C; ATP-regenerating system (phosphoenolpyruvate, pyruvate kinase)
T5 construct: NBD1-M (residues 141-534) covalent dimer linked by intermolecular disulfide between P221C of one subunit and M394C of the other; expressed in E. coli BL21 (DE3) RIL; one cross-linked and one free site; associates to tetramers with ATP
Excerpt: (§2) fluorescence displacement titration against MANT-dADP on ClpB NBD1-M dimer with P221C/M394C disulfide crosslink

[6] = target: T1, ClpB NBD1-M dimer with P221C/M394C disulfide crosslink; assay: as above; assay type: binding; settings: 2 µM protein, 50 mM Tris/HCl pH 7.5, 50 mM KCl, 5 mM MgCl2, 2 mM EDTA, 25 °C
Excerpt: as §2

[7] = target: T6, ClpB NBD1-M dimer with P221C/M394C disulfide crosslink (Thermus thermophilus, UniProt Q9RA63, M394C/P221C); assay: stopped-flow FRET kinetics (koff/kon); assay type: binding; settings: read-out: KD "free"
T6 construct: NBD1-M (residues 141-534) covalent dimer linked by intermolecular disulfide between P221C of one subunit and M394C of the other; expressed in E. coli BL21 (DE3) RIL; one cross-linked and one free site; associates to tetramers with ATP
Excerpt: stopped-flow FRET kinetics (koff/kon) on ClpB NBD1-M dimer with P221C/M394C disulfide crosslink

ClpB NBD1-M [8] = target: T2, ClpB NBD1-M; assay: stopped-flow FRET kinetics (koff/kon); assay type: binding
Excerpt: (§3) stopped-flow FRET kinetics (koff/kon) on ClpB NBD1-M

ClpB NBD1-M [9] = target: T3, ClpB NBD1-M; assay: stopped-flow FRET kinetics (koff/kon); assay type: binding
Excerpt: as §3

ClpB NBD1-M [10] = target: T4, ClpB NBD1-M; assay: stopped-flow FRET kinetics (koff/kon); assay type: binding
Excerpt: as §3

[11] = read-out: KD(ATP), ATP-regenerating system (phosphoenolpyruvate, pyruvate kinase)

T2 sequence (Q9RA63 141-534 R322A): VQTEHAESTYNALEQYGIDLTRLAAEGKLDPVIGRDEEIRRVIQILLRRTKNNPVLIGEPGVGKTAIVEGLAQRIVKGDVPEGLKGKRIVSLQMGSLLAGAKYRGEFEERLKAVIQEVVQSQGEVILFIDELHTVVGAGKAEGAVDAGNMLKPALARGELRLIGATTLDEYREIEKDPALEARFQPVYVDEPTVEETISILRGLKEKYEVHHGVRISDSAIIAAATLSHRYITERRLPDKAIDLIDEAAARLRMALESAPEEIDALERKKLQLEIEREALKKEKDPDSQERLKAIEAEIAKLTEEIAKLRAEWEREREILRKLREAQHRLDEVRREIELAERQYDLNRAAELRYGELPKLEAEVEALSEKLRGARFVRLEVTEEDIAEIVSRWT
T1 sequence (Q9RA63 141-534 M394C): as the sequence (Q9RA63 141-534 R322A) above, with A182R, M254C counted along it
T1 sequence (Q9RA63 141-534 P221C): as the sequence (Q9RA63 141-534 R322A) above, with P81C, A182R counted along it
T3 sequence (Q9RA63 141-534 R323A): as the sequence (Q9RA63 141-534 R322A) above, with A182R, R183A counted along it
T4 sequence (Q9RA63 141-534 R322A/R323A): as the sequence (Q9RA63 141-534 R322A) above, with R183A counted along it
T5 sequence (Q9RA63 141-534 M394C): as the sequence (Q9RA63 141-534 R322A) above, with A182R, M254C counted along it
T5 sequence (Q9RA63 141-534 P221C): as the sequence (Q9RA63 141-534 R322A) above, with P81C, A182R counted along it
T6 sequence (Q9RA63 141-534 M394C): as the sequence (Q9RA63 141-534 R322A) above, with A182R, M254C counted along it
T6 sequence (Q9RA63 141-534 P221C): as the sequence (Q9RA63 141-534 R322A) above, with P81C, A182R counted along it

`Nc1ncnc2c1ncn2[C@@H]1O[C@H](COP(=O)(O)OP(=O)(O)OP(=O)(O)O)[C@@H](O)[C@H]1O` [ATP] was tested, and the Km [1] was 162 ± 4 µM, the Kd (ClpB NBD1-M [2]; [11]) was 1670 ± 160 µM and the Kd (ClpB NBD1-M [3]; [11]) was 1040 ± 120 µM. The Kd (ClpB NBD1-M [4]; [11]) was 2050 ± 180 µM, the Kd [5] was 438 ± 17 µM and the Kd [6, 11] was 96 ± 11 µM.
Work on `Nc1ncnc2c1ncn2[C@@H]1O[C@H](COP(=O)(O)OP(=O)(O)O)[C@@H](O)[C@H]1O` [ADP] yielded a Kd (ClpB NBD1-M [2]; read-out: KD(ADP)) of 10.7 ± 0.6 µM, a Kd (ClpB NBD1-M [3]; read-out: KD(ADP)) of 10.2 ± 0.6 µM and a Kd (ClpB NBD1-M [4]; read-out: KD(ADP)) of 9.3 ± 0.7 µM. It also gave a Kd ([6]; read-out: KD(ADP)) of 1.3 ± 0.1 µM.
`CNc1ccccc1C(=O)O[C@H]1C[C@H](n2cnc3c(N)ncnc32)O[C@@H]1COP(=O)(O)OP(=O)(O)O` [MANT-dADP, 2′-deoxy-3′-O-(N′-methylanthraniloyl)adenosine-5′-O-diphosphate] gave a Kd [7] of 0.67 ± 0.04 µM, a Kd (ClpB NBD1-M [8]) of 8.3 ± 0.4 µM and a Kd (ClpB NBD1-M [9]) of 6.7 ± 0.2 µM. The Kd (ClpB NBD1-M [10]) was 6.9 ± 0.2 µM.
